The record followed here is US12691234B2, “Methods employing gaseous nitric oxide for inhibiting tumor growth” (Beyond Air, Inc., priority 2019, dated 2026).

One experiment deals with CT-26 tumor. Put plainly: Local gNO administration to CT26 tumor-bearing mice, primary tumor. Format: in vivo, Balb/c mouse. As to the method: Test article treatment: Mice were first anesthetized by an intraperitoneal (i.p) injection of 100 mg/kg ketamine and 20 mg/kg xylazine hydrochloride solution. After 10 minutes, tumor-bearing mice were treated with the indicated dose of gNO.
In all protocols, the gas was delivered from NO in N2 cylinders. The outlet pressure was set to 2-3.5 bar using a pressure regulator that was connected directly to the cylinder.
In protocols that involve administration by needle injection, a silicone hose was connected directly to the pressure regulator on one end and to a manual or digital MFC on the other end. The flow was adjusted to 0.05 LPM-0.25 LPM. An additional silicone hose was connected to the flow controller as well as to a 23 G hypodermic needle. The needle was inserted horizontally into the center of each tumor.
Mice were inoculated subcutaneously with 5×10^5 CT-26 cells suspended in 100 μL Hank's Balanced Salt Solution (HBSS) into the low lateral side of the back. Local tumor growth was determined by measuring two mutually orthogonal tumor diameters with a caliper. The volume of the tumor was calculated using the formula: Vol=D1×D2×D2/2, where D1, D2 are two mutually orthogonal tumor diameters.
Air-1 is a female Balb/c mouse that was treated twice. On day 0 the tumor volume was 64.85 mm^3. […] This was followed by air administration for 4 minutes administered to the outer layer of the tumorusing a cap, such as shown in FIG. 11C.
NO-1 is a female Balb/c mouse and was treated once. […] Then, the skin was removed from the tumor, and the tumor was re-exposed to gNO via a perforated flask filled with gNO using the same parameters.
NO-2 is a male Balb/c mouse and was treated 3 times. On day 0 the tumor volume was 38.51 mm^3. Day 0—gNO at 50,000 ppm was administered for 3.8 minutes at a flow rate of 0.9 using a cap. Day 5: gNO at 10,000 ppm was administered for 30 minutes using a cap. Then, gNO was delivered intra-tumorally by a 23 G needle such as shown in FIG. 11B at 0.3 LPM for another 10 minutes, using an intra-tumoral channel. The tip of the needle was directed at the outside area. Day 11: gNO at 10,000 ppm was delivered to the tumor for 5 minutes and at a flow rate of 0.3 LPM, using a 23 G needle and an intra-tumoral channel.
In an additional set of experiments, aluminum disposable gas cylinders were used. A flow meter was connected directly to the cylinder, to which a gas delivery tubing was connected. The tumor was inserted into a small flask trough a 1 cm hole and a plastic holder. A small hole at the bottom of the flask enabled to lower the pressure inside the flask. […]

The subject of another experiment is CT26 challenge tumor. Put plainly: Challenge assay in CT26 tumor-bearing mice. Format: in vivo, mouse. The protocol:
Challenge tumor inoculation: Up to 21 days after gas treatment was applied to the primary tumor, the appropriate cancer cell suspensions were prepared as described herein and inoculation of cells was repeated on the contralateral flank of the mice. Administration was performed as soon as possible following cell suspension preparation and after manual shaking prior to withdrawal of the cell suspension.
The percentage of challenge tumor take was monitored 2-3 times a week by taking a look at the inoculated site and touching this area to look for small tumors that are not yet visible. Naïve mice inoculated with tumor cells for the first time served as an internal control.
Mixing of cells was performed immediately before injection to minimize leukocyte interactions within the syringe. Mice were observed 2-3 times a week and tumor development was determined by caliper measurements of tumor dimensions as described herein. Splenocytes were extracted from a CT26 tumor-bearing mouse, which was previously treated with 25,000 ppm NO for two 15-minute courses. This mouse was re-inoculated with CT26 cancer cells 12 days post treatment. […] Tumor take of visible outgrowths was monitored 2 to 3 times per week by taking a look at the inoculated site and touching this area to look for small tumors that are not yet visible Naïve mice inoculated s.c. with 500,000 CT26 served as the control group. […]

A further experiment concerns 4T1 cells. Put plainly: Third inoculation with 4T1 breast cancer cells in CT26 gNO-immunized mouse. As to conditions: mouse treated with 25,000 ppm NO twice 15 minutes; 4T1 inoculated 30 days post second inoculation. Format: in vivo, Balb/c mouse. As to the method: Balb/c mouse was inoculated with 500,000 CT26 cells to the right flank. CT26 tumor was treated with 25,000 ppm NO for 15 minutes at a flow rate of 0.25 LPM. Seven days post gas treatment, this mouse was treated once again using the same protocol. Twelve days post the first NO treatment, this mouse was re-inoculated with 500,000 CT26 cells to the left flank. A third inoculation of cancer cells was performed 30 days post the second cell inoculation, using mouse breast cancer cells, was performed as well and the growth of a third inoculation of breast cancer cells, 4T1 cells. Forty-four days post challenge assay start (second inoculation), this mouse was sacrificed, and his spleen was harvested and preserved in RPMI-based media at 4° c. until processing of it. The spleen was processed into a sterile 35 mm culture dish containing 5 ml of RPMI-based media. Any extra connective tissues or fat was trimmed from the spleen. The flat end of a plunger was used to mince the spleen by crushing the spleen to release the splenocytes. A 70 μm strainer was primed by passing 1 ml of PBS through it and placed on a sterile 50 mL conical tube. The pellet was collected and transferred through the strainer via a 5 mL serological pipette. The strainer was washed with 3 mL of RPMI-based media. Tube will be centrifuged at 300×g for 10 minutes. […]

Regarding `[N]=O` [gNO, nitric oxide], the “tumor in photographs after treatment” value in the experiment on CT-26 tumor (10,000 ppm gNO in flask, 0.9 LPM, 20 minutes, up to 14 days post treatment) was “the tumor was destructed”. Besides, the mice cured in the experiment with CT-26 tumor (25,000 ppm gNO intra-tumoral, 15 minutes, 0.25 LPM, repeated a week later, 44 days post the first treatment) is listed as 50%. In addition, the “tumor 9 days after treatment” value with CT-26 tumor (200,000 ppm gNO for 2 seconds, 0.01 LPM) is on record as “the tumor disappeared”. Moreover, the “size of air-treated tumor relative to gNO-treated tumors” value in the experiment on CT-26 tumor (mice NO-1 and NO-2, 10,000-50,000 ppm gNO, 12 days post treatment 1) is on record as “more than times bigger”. In addition, in the experiment on CT26 challenge tumor (25,000 ppm 30 minutes, 50,000 ppm 10 minutes or 200,000 ppm 2-35 seconds, end of follow-up), the “rejection of secondary CT26 tumor cell inoculation” value is on record as “all NO-treated mice rejected a secondary CT26 tumor cell inoculation”. For the same compound, in the experiment with CT26 challenge tumor (25,000 ppm NO two 15-minute courses, re-inoculated 12 days post treatment, 44 days after challenge), the “tumor development after CT26 re-inoculation” value is given as “no signs of tumor development were detected”. The “growth of a third inoculation of breast cancer cells” value in the experiment on 4T1 cells was “inhibited”.
